# How the values were obtained:
# Assay in all cases: biochemical
# Assay type in all cases: binding
# [1] = target: 468 kinases including some pathogenic mutants (Homo sapiens, UniProt P00519, H396P)
# [2] = target: 468 kinases including some pathogenic mutants (Homo sapiens, UniProt Q8NEB9); conditions: VPS34 (Entrez PIK3C3), 1000 nM; read-out: Percent Control
# [3] = target: 468 kinases including some pathogenic mutants (Homo sapiens, UniProt Q16832); conditions: DDR2 (Entrez DDR2), 100 nM; read-out: Percent Control
# [4] = target: 468 kinases including some pathogenic mutants (Homo sapiens, UniProt P42336, M1043I); conditions: read-out: Percent Control
# [5] = target: 468 kinases including some pathogenic mutants (Homo sapiens, UniProt P78356); conditions: PIP5K2B (Entrez PIP4K2B), 100 nM; read-out: Percent Control
# 468 kinases including some pathogenic mutants (Homo sapiens, UniProt P78356), sequence (P78356 whole entry, change not shown): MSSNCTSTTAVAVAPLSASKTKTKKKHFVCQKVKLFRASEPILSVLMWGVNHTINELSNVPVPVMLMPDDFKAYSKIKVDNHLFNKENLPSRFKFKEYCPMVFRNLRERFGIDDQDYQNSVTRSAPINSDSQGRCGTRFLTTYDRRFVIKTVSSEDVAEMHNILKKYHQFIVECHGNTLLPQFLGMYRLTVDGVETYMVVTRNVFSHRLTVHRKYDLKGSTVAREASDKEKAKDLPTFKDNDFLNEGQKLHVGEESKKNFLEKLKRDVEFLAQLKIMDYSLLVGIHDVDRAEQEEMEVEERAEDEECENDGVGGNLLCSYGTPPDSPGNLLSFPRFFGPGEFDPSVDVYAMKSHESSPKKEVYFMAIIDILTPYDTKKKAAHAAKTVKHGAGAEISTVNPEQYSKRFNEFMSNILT
# [6] = target: 468 kinases including some pathogenic mutants (Homo sapiens, UniProt Q9H4A3); conditions: WNK1 (Entrez WNK1), 1000 nM; read-out: Percent Control
# [7] = target: 468 kinases including some pathogenic mutants (Homo sapiens, UniProt Q96BR1); conditions: SGK3 (Entrez SGK3), 100 nM; read-out: Percent Control
# [8] = target: 468 kinases including some pathogenic mutants (Homo sapiens, UniProt P07333); conditions: CSF1R-autoinhibited (Entrez CSF1R), 100 nM; read-out: Percent Control
# [9] = target: 468 kinases including some pathogenic mutants (Homo sapiens, UniProt Q13882); conditions: BRK (Entrez PTK6), 100 nM; read-out: Percent Control
# [10] = target: 468 kinases including some pathogenic mutants (Homo sapiens, UniProt Q2M2I8); conditions: AAK1 (Entrez AAK1), 100 nM; read-out: Percent Control
# 468 kinases including some pathogenic mutants (Homo sapiens, UniProt Q2M2I8), sequence (Q2M2I8 whole entry, change not shown): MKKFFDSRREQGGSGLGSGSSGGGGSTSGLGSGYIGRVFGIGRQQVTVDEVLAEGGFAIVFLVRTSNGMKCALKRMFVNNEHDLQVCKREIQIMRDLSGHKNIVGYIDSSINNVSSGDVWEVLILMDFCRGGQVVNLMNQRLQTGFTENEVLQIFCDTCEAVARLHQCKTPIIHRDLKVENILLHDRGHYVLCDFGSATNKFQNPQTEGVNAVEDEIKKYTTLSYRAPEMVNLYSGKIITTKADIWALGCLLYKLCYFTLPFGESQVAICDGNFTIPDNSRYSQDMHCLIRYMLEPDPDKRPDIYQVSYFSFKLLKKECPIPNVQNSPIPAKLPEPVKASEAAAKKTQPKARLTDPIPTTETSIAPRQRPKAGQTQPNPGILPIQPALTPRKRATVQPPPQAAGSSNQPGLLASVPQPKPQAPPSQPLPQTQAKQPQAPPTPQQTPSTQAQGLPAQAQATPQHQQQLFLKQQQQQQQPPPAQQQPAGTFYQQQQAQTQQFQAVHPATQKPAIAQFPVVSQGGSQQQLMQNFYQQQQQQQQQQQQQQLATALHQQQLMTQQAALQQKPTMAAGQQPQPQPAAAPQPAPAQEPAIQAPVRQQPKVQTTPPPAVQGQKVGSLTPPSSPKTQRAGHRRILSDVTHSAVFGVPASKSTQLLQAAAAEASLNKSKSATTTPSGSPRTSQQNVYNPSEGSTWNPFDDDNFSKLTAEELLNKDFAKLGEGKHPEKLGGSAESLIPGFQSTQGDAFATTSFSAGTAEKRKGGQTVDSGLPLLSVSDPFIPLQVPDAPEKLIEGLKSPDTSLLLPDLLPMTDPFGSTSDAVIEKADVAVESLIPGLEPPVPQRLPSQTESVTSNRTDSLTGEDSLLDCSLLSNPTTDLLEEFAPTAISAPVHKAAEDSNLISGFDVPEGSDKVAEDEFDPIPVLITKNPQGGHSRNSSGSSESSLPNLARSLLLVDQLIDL
# [11] = target: 468 kinases including some pathogenic mutants (Homo sapiens, UniProt Q86UX6); conditions: YANK3 (Entrez STK32C), 100 nM; read-out: Percent Control
# [12] = target: 468 kinases including some pathogenic mutants (Homo sapiens, UniProt P53350); conditions: PLK1 (Entrez PLK1), 100 nM; read-out: Percent Control
# [13] = target: 468 kinases including some pathogenic mutants (Homo sapiens, UniProt P53778); conditions: p38-gamma (Entrez MAPK12), 100 nM; read-out: Percent Control
# [14] = target: 468 kinases including some pathogenic mutants (Homo sapiens, UniProt Q15759); conditions: p38-beta (Entrez MAPK11), 100 nM; read-out: Percent Control
# [15] = target: 468 kinases including some pathogenic mutants (Homo sapiens, UniProt P19784); conditions: CSNK2A2 (Entrez CSNK2A2), 100 nM; read-out: Percent Control
# [16] = target: 468 kinases including some pathogenic mutants (Homo sapiens, UniProt Q9BRS2); conditions: RIOK1 (Entrez RIOK1), 100 nM; read-out: Percent Control
# 468 kinases including some pathogenic mutants (Homo sapiens, UniProt Q9BRS2), sequence (Q9BRS2 whole entry, change not shown): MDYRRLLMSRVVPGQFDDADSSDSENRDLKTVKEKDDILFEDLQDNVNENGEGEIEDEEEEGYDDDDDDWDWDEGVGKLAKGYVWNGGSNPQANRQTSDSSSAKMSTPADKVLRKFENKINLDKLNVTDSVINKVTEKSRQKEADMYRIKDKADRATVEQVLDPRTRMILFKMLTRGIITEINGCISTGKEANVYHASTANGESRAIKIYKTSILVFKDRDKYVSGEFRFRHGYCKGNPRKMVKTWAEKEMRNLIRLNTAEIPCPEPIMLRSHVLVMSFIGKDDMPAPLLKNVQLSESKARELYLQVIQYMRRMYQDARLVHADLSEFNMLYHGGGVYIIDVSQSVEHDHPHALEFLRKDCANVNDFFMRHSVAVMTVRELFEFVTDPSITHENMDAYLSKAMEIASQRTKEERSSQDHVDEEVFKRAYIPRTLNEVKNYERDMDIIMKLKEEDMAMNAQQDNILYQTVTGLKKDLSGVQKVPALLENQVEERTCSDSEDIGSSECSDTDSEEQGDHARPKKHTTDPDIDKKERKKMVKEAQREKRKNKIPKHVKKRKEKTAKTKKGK
# [17] = target: 468 kinases including some pathogenic mutants (Homo sapiens, UniProt Q16816); conditions: PHKG1 (Entrez PHKG1), 100 nM; read-out: Percent Control
# [18] = target: 468 kinases including some pathogenic mutants (Homo sapiens, UniProt P00533, L861Q); conditions: read-out: Percent Control
# [19] = target: 468 kinases including some pathogenic mutants (Homo sapiens, UniProt Q9P1W9); conditions: PIM2 (Entrez PIM2), 100 nM; read-out: Percent Control
# [20] = target: 468 kinases including some pathogenic mutants (Homo sapiens, UniProt P00533, G719S); conditions: read-out: Percent Control
# [21] = target: 468 kinases including some pathogenic mutants (Homo sapiens, UniProt Q13163); conditions: MEK5 (Entrez MAP2K5), 100 nM; read-out: Percent Control
# [22] = target: 468 kinases including some pathogenic mutants (Homo sapiens, UniProt P42336, H1047Y); conditions: read-out: Percent Control
# 468 kinases including some pathogenic mutants (Homo sapiens, UniProt P42336, H1047Y), sequence (P42336 whole entry H1047Y): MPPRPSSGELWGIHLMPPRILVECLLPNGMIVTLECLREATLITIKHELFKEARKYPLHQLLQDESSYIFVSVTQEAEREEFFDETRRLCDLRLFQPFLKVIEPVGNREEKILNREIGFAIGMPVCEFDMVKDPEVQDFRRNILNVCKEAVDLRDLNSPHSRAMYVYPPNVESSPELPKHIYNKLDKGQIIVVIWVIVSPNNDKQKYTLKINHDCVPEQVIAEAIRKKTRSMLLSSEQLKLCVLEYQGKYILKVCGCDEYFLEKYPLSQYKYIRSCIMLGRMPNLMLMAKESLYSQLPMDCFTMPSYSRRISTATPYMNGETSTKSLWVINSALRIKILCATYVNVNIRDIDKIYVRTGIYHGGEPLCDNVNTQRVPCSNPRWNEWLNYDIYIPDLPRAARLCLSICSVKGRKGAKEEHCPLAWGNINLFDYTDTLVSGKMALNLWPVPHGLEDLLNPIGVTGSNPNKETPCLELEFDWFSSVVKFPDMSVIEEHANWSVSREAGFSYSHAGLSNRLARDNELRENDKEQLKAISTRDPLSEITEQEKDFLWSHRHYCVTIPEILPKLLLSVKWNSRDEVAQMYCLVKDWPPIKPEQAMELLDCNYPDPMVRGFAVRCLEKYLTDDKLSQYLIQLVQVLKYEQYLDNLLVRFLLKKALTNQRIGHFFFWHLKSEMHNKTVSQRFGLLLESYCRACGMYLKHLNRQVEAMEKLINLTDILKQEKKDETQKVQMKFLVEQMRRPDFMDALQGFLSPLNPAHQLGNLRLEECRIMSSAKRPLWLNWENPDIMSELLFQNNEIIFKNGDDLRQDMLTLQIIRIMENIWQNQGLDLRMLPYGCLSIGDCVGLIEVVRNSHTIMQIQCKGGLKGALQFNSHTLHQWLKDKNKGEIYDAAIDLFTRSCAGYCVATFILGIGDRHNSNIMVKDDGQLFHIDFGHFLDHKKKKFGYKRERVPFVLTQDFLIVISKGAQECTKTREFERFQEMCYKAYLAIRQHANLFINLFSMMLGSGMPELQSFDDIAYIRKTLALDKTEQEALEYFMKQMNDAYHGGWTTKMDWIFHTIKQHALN
# [23] = target: 468 kinases including some pathogenic mutants (Homo sapiens, UniProt Q13627); conditions: DYRK1A (Entrez DYRK1A), 100 nM; read-out: Percent Control
# [24] = target: 468 kinases including some pathogenic mutants (Homo sapiens, UniProt Q15208); conditions: NDR1 (Entrez STK38), 100 nM; read-out: Percent Control
# [25] = target: 468 kinases including some pathogenic mutants (Homo sapiens, UniProt Q9BX84); conditions: TRPM6 (Entrez TRPM6), 1000 nM; read-out: Percent Control
# 468 kinases including some pathogenic mutants (Homo sapiens, UniProt Q9BX84), sequence (Q9BX84 whole entry, change not shown): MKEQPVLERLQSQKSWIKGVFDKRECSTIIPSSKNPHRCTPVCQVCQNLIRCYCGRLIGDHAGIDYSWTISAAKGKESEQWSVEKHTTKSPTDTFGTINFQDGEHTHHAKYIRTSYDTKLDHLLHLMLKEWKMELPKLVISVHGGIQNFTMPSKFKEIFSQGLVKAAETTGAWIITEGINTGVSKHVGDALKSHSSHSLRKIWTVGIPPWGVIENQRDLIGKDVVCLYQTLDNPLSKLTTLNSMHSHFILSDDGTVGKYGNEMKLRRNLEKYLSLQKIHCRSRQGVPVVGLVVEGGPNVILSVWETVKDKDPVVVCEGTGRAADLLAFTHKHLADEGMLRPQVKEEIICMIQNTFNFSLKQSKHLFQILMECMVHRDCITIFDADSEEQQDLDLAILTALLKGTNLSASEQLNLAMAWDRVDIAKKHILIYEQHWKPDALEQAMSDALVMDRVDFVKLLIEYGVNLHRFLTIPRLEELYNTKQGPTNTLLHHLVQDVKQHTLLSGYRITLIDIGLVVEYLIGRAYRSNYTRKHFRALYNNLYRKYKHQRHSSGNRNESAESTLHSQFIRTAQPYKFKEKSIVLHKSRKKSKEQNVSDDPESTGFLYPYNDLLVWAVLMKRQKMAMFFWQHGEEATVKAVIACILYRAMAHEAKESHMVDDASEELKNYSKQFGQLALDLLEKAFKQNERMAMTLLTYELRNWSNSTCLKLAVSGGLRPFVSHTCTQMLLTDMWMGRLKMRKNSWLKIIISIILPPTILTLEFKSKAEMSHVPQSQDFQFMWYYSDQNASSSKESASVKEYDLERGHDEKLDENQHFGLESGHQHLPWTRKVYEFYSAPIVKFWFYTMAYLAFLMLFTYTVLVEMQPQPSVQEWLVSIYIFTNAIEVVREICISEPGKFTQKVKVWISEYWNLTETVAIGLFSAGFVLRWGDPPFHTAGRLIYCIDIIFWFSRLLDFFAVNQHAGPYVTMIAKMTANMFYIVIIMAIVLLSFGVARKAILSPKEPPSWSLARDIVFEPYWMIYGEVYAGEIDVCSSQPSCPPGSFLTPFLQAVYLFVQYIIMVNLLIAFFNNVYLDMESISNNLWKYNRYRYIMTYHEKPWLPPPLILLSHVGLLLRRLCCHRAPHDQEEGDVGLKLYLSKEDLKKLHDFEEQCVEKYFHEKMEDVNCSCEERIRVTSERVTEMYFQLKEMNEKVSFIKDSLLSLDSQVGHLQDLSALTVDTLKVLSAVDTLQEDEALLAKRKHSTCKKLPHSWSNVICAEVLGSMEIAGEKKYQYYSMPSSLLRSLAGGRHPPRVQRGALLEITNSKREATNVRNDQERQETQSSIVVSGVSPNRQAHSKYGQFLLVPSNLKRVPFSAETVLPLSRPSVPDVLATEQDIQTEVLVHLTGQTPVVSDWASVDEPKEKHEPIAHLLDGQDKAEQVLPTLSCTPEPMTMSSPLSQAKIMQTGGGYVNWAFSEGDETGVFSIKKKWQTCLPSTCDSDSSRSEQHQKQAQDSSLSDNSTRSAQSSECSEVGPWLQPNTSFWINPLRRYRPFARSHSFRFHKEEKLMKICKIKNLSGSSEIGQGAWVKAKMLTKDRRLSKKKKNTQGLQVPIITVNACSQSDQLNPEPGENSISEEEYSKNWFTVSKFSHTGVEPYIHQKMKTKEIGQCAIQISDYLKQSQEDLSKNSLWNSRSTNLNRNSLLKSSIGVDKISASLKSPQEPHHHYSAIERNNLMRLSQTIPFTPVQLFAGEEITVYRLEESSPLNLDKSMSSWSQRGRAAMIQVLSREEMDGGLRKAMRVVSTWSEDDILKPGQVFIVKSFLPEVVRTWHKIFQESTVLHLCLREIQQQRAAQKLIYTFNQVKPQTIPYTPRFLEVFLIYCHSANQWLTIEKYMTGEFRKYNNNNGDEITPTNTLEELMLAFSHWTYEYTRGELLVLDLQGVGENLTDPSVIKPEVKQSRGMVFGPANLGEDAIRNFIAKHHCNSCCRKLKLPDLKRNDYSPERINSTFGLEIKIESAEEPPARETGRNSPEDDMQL
# [26] = target: 468 kinases including some pathogenic mutants (Homo sapiens, UniProt P41743); conditions: PRKCI (Entrez PRKCI), 100 nM; read-out: Percent Control
# [27] = target: 468 kinases including some pathogenic mutants (Homo sapiens, UniProt Q9H093); conditions: SNARK (Entrez NUAK2), 100 nM; read-out: Percent Control
# [28] = target: 468 kinases including some pathogenic mutants (Homo sapiens, UniProt O00750); conditions: PIK3C2B (Entrez PIK3C2B), 1000 nM; read-out: Percent Control
# [29] = target: 468 kinases including some pathogenic mutants (Homo sapiens, UniProt Q16620); conditions: TRKB (Entrez NTRK2), 100 nM; read-out: Percent Control
structure (smiles),measurement,setting,value
"CN1C(=O)[C@@H](N2CCc3c(nn(Cc4ccccc4)c3C(N)=O)C2=O)COc2cc(Cl)ccc21 [Compound 10, (S)-2-benzyl-6-(8-chloro-5-methyl-4-oxo-2,3,4,5-tetrahydrobenzo[b][1,4]oxazepin-3-yl)-7-oxo-4,5,6,7-tetrahydro-2H-pyrazolo[3,4-c]pyridine-3-carboxamide]",Percent Control,[1]; listed as LIJTF500025,73%
same,remaining activity at 0.1 µM,[1]; read-out: Percent Control,67%
same,remaining activity at 1 µM,[2],100%
same,remaining activity at 0.1 µM,[3],84%
same,remaining activity at 0.1 µM,[4],78%
same,remaining activity at 0.1 µM,[5],55%
same,remaining activity at 1 µM,[6],100%
same,remaining activity at 0.1 µM,[7],90%
same,remaining activity at 0.1 µM,[8],80%
same,remaining activity at 0.1 µM,[9],81%
same,remaining activity at 0.1 µM,[10],72%
same,remaining activity at 0.1 µM,[11],86%
same,remaining activity at 0.1 µM,[12],68%
same,remaining activity at 0.1 µM,[13],65%
same,remaining activity at 0.1 µM,[14],100%
same,remaining activity at 0.1 µM,[15],74%
same,remaining activity at 0.1 µM,[16],63%
same,remaining activity at 0.1 µM,[17],94%
same,remaining activity at 0.1 µM,[18],100%
same,remaining activity at 0.1 µM,[19],83%
same,remaining activity at 0.1 µM,[20],100%
same,remaining activity at 0.1 µM,[21],89%
same,remaining activity at 1 µM,[22],100%
same,remaining activity at 0.1 µM,[23],89%
same,remaining activity at 0.1 µM,[24],86%
same,remaining activity at 1 µM,[25],100%
same,remaining activity at 0.1 µM,[26],81%
same,remaining activity at 0.1 µM,[27],84%
same,remaining activity at 1 µM,[28],100%
same,remaining activity at 0.1 µM,[29],88%

# Reference: publication PMC12090182, “Repurposing of the RIPK1-Selective Benzo[1,4]oxazepin-4-one Scaffold for the Development of a Type III LIMK1/2 Inhibitor” (ACS Chemical Biology, 2025)
